What was measured:
[1] = system: reversible 5-aminovalerate transaminase; conditions: Barker et al., J. Biol. Chem., 1987; cited from earlier work
[2] = system: reversible ω-transaminase (SEQ ID NO: 7); conditions: Kaulmann et al., 2007; cited from earlier work
[3] = system: reversible 4-aminobubyrate:2-oxoglutarate transaminase; conditions: Yonaha et al., Eur. J. Biochem., 1985; cited from earlier work
[4] = system: ω-transaminase of SEQ ID NO: 9; assay: ω-transaminase activity, glutarate semialdehyde to 5-aminopentanoate (reverse direction); format: biochemical, Pseudomonas syringae; conditions: cell free extract; 10 mM glutarate semialdehyde, 10 mM L-alanine, pH 7.5, 25° C., 4 h; RP-HPLC; FIG. 9
Experimental: A sequence encoding an N-terminal His-tag was added to the genes from Chromobacterium violaceum and Pseudomonas syringae encoding the ω-transaminases of SEQ ID NOs: 7 and 9, respectively (see FIG. 7) such that N-terminal HIS tagged ω-transaminases could be produced. Each of the resulting modified genes was cloned into a pET21a expression vector under control of the T7 promoter and each expression vector was transformed into a BL21[DE3] E. coli host. The resulting recombinant E. coli strains were cultivated at 37° C. in a 250 mL shake flask culture containing 50 mL LB media and antibiotic selection pressure, with shaking at 230 rpm. Each culture was induced overnight at 16° C. using 1 mM IPTG.
The pellet from each induced shake flask culture was harvested via centrifugation. Each pellet was resuspended and lysed via sonication. The cell debris was separated from the supernatant via centrifugation and the cell free extract was used immediately in enzyme activity assays.
Enzyme activity in the reverse direction (i.e., glutarate semialdehyde to 5-aminopentanoate) were performed in a buffer composed of a final concentration of 50 mM HEPES buffer (pH=7.5), 10 mM glutarate semialdehyde, 10 mM L-alanine and 100 μM pyridoxyl 5′ phosphate. […] The formation of pyruvate was quantified via RP-HPLC.

[5] = system: carboxylate reductase of SEQ ID NO 6; assay: carboxylate reductase activity, glutarate semialdehyde to pentanedial; format: biochemical, Segniliparus rotundus; conditions: SEQ ID NO 6, enhanced by sfp gene product; 2 mM glutarate semialdehyde, 1 mM ATP, 1 mM NADPH, pH 7.5, room temperature, 20 min; FIG. 15
Experimental: The N-terminal His-tagged carboxylate reductase of SEQ ID NO 6 (see Example 2 and FIG. 7) was assayed using glutarate semialdehyde as substrate. The enzyme activity assay was performed in triplicate in a buffer composed of a final concentration of 50 mM HEPES buffer (pH=7.5), 2 mM glutarate semialdehyde, 10 mM MgCl2, 1 mM ATP and 1 mM NADPH. The enzyme activity assay reaction was initiated by adding purified carboxylate reductase and phosphopantetheine transferase or the empty vector control to the assay buffer containing the glutarate semialdehyde and then incubated at room temperature for 20 min. The consumption of NADPH was monitored by absorbance at 340 nm.

[6] = biological target: T1, carboxylate reductase of SEQ ID NO: 1 (Mycobacterium marinum, UniProt B2HN69); assay: carboxylate reductase activity, 5-hydroxypentanoate to 5-hydroxypentanal; format: biochemical; conditions: SEQ ID NO 1, enhanced by sfp gene product; 1 mM ATP, 1 mM NADPH, pH 7.5, room temperature, 20 min; FIG. 12
T1 construct: His-tag (N); made in house; host or cells: E. coli BL21[DE3], pET Duet
Experimental: (§1) A sequence encoding a His-tag was added to the genes from Mycobacterium marinum, Mycobacterium smegmatis, Segniliparus rugosus, Mycobacterium massiliense, and Segniliparus rotundus that encode the carboxylate reductases of SEQ ID NOs: 1, 2, 3, 5 and 6, respectively (see FIG. 7) such that N-terminal HIS tagged carboxylate reductases could be produced. Each of the modified genes was cloned into a pET Duet expression vector alongside a sfp gene encoding a His-tagged phosphopantetheine transferase from Bacillus subtilis, both under control of the T7 promoter.
(§2) Each expression vector was transformed into a BL21[DE3] E. coli host and the resulting recombinant E. coli strains were cultivated at 37° C. in a 250 mL shake flask culture containing 50 mL LB media and antibiotic selection pressure, with shaking at 230 rpm. Each culture was induced overnight at 37° C. using an auto-induction media.
(§3) The pellet from each induced shake flask culture was harvested via centrifugation. Each pellet was resuspended and lysed via sonication. […]
(§4) Enzyme activity (i.e., 5-hydroxypentanoate to 5-hydroxypentanal) assays were performed in triplicate in a buffer composed of a final concentration of 50 mM HEPES buffer (pH=7.5), 2 mM 5-hydroxypentanal, 10 mM MgCl2, 1 mM ATP, and 1 mM NADPH. […] The consumption of NADPH was monitored by absorbance at 340 nm.

[7] = system: carboxylate reductase of SEQ ID NO: 2; assay: as above; format: biochemical, Mycobacterium smegmatis; conditions: SEQ ID NO 2, enhanced by sfp gene product; 1 mM ATP, 1 mM NADPH, pH 7.5, room temperature, 20 min; FIG. 12
Experimental: as §1, §2, §3, §4

[8] = system: carboxylate reductase of SEQ ID NO: 3; assay: as above; format: biochemical, Segniliparus rugosus; conditions: SEQ ID NO 3, enhanced by sfp gene product; 1 mM ATP, 1 mM NADPH, pH 7.5, room temperature, 20 min; FIG. 12
Experimental: as §1, §2, §3, §4

[9] = system: carboxylate reductase of SEQ ID NO: 5; assay: as above; format: biochemical, Mycobacterium massiliense; conditions: SEQ ID NO 5, enhanced by sfp gene product; 1 mM ATP, 1 mM NADPH, pH 7.5, room temperature, 20 min; FIG. 12
Experimental: as §1, §2, §3, §4

[10] = system: carboxylate reductase of SEQ ID NO: 6; assay: as above; format: biochemical, Segniliparus rotundus; conditions: SEQ ID NO 6, enhanced by sfp gene product; 1 mM ATP, 1 mM NADPH, pH 7.5, room temperature, 20 min; FIG. 12
Experimental: as §1, §2, §3, §4

diamine transaminase = conditions: Kim, 1964; cited from earlier work

T1 sequence (B2HN69 whole entry): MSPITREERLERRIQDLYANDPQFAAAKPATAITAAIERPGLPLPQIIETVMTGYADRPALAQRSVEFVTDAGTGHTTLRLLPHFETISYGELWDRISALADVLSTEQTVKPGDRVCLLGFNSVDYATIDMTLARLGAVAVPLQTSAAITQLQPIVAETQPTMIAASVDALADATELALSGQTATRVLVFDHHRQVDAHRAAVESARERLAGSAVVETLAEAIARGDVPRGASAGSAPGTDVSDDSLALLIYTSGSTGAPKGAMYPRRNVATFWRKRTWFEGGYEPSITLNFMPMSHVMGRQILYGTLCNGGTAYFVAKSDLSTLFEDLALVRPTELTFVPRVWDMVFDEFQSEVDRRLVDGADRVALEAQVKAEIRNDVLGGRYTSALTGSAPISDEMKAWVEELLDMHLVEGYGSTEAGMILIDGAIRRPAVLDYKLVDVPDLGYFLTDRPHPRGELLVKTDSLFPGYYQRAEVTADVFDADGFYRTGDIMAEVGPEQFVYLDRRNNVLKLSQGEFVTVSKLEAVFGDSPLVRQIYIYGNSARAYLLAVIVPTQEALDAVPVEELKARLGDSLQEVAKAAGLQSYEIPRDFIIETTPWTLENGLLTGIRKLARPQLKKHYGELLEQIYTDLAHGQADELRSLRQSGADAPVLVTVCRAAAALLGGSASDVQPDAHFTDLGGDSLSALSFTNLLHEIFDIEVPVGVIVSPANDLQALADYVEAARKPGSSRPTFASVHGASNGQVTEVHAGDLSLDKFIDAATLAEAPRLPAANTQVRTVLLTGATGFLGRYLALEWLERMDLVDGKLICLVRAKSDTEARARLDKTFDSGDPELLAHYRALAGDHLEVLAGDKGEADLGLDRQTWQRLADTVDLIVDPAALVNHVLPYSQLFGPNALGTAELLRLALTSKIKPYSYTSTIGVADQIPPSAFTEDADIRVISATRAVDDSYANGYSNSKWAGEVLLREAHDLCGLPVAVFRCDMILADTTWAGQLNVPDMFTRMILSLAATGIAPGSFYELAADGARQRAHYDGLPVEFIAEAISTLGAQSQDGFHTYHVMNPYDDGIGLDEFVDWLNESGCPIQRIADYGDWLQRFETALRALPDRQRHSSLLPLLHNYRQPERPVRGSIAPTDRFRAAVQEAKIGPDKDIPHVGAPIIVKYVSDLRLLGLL

NCCCCCC(=O)O [6-aminohexanoate]
activity for the conversion to adipate semialdehyde [1]: demonstrated analogous activity
activity accepting as amino donor [2]: demonstrated analogous activity
activity for the conversion to adipate semialdehyde [3]: demonstrated analogous activity

O=CCCCC(=O)O [glutarate semialdehyde]
acceptance as substrate (conversion of L-alanine to pyruvate) vs empty vector control [4]: accepted glutarate semialdehyde as substrate
acceptance as substrate (consumption of NADPH, absorbance at 340 nm) vs empty vector control [5]: accepted glutarate semialdehyde as substrate

O=C(O)CCCCO [5-hydroxypentanoate]
acceptance as substrate (consumption of NADPH, absorbance at 340 nm) vs empty vector control [6]: accepted 5-hydroxypentanoate as substrate
acceptance as substrate (consumption of NADPH, absorbance at 340 nm) vs empty vector control [7]: accepted 5-hydroxypentanoate as substrate
acceptance as substrate (consumption of NADPH, absorbance at 340 nm) vs empty vector control [8]: accepted 5-hydroxypentanoate as substrate
acceptance as substrate (consumption of NADPH, absorbance at 340 nm) vs empty vector control [9]: accepted 5-hydroxypentanoate as substrate
acceptance as substrate (consumption of NADPH, absorbance at 340 nm) vs empty vector control [10]: accepted 5-hydroxypentanoate as substrate

NCCCCCCCN [1,7 diaminoheptane]
diamine transaminase activity (diamine transaminase): demonstrated activity

Reference: US20150111262A1, “METHODS AND MATERIALS FOR PRODUCING FIVE CARBON BUILDING BLOCKS FROM PROLINE” (INVISTA North America S.á r.l., priority 2013, published 2015)
